Assay results taken from ChEMBL document CHEMBL1201862, “PubChem BioAssay data set” (2004).
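Assay format: 96-well plates, 48-hour exposure. GI50 = concentration required for 50% inhibition of growth.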 The source made the active and inactive calls. No stated cut-off is given here; in the data, active = GI50 up to about 1.1 µM and inactive = higher. Residues, ends and D or L forms follow the SMILES beside them. Groups on a side chain read outwards from the residue. *: point of attachment. Cbz = O=C(OCc1ccccc1)*; Boc = CC(C)(C)OC(=O)*

How the values were obtained:
Assay in all cases: NCI anticancer screen, dose series, 48 h
ACHN = test system: ACHN
CAKI-1 = test system: CAKI-1
HCT-116 = test system: HCT-116
HCT-15 = test system: HCT-15
M14 = test system: M14
MDA-MB-435 = test system: MDA-MB-435
Malme-3M = test system: Malme-3M
NCI-H226 = test system: NCI-H226
NCI-H460 = test system: NCI-H460
NCI-H522 = test system: NCI-H522
OVCAR-4 = test system: OVCAR-4
RPMI-8226 = test system: RPMI-8226
SK-MEL-2 = test system: SK-MEL-2
SNB-19 = test system: SNB-19
U-251 = test system: U-251
UO-31 = test system: UO-31
SF-295 = test system: SF-295
SF-539 = test system: SF-539
RXF 393 = test system: RXF 393
HOP-92 = test system: HOP-92

Row | SMILES | GI50 (ACHN) | GI50 (CAKI-1) | GI50 (HCT-116) | GI50 (HCT-15) | GI50 (M14) | GI50 (MDA-MB-435) | GI50 (Malme-3M) | GI50 (NCI-H226) | GI50 (NCI-H460) | GI50 (NCI-H522) | GI50 (OVCAR-4) | GI50 (RPMI-8226) | GI50 (SK-MEL-2) | GI50 (SNB-19) | GI50 (U-251) | GI50 (UO-31) | GI50 (SF-295) | GI50 (SF-539) | GI50 (RXF 393) | GI50 (HOP-92)
1 | CC(C)(C)OC(=O)NC(CCCCNC(=O)CNC(=O)OCc1ccccc1)C(=O)NC(CCCCNC(=O)CNC(=O)OCc1ccccc1)C(=O)NC(CCCCNC(=O)CNC(=O)OCc1ccccc1)C(=O)NC(CCCCNC(=O)CNC(=O)OCc1ccccc1)C(=O)O (stereo not given) (Boc-K([Gly-Cbz])K([Gly-Cbz])K([Gly-Cbz])K([Gly-Cbz])-OH; configuration not given here) | > 100 µM (inactive) | > 100 µM (inactive) | > 100 µM (inactive) | > 100 µM | > 100 µM (inactive) | > 10 µM (inactive) | > 100 µM (inactive) | > 100 µM (inactive) | > 100 µM (inactive) | > 100 µM (inactive) | > 10 µM (inactive) | > 100 µM (inactive) | > 100 µM (inactive) | > 100 µM (inactive) | > 100 µM (inactive) | > 100 µM (inactive) | – | – | – | –
2 | Cc1nc2c(=S)n(C)ncc2[nH]1 | > 100 µM (inactive) | > 100 µM (inactive) | > 100 µM (inactive) | > 100 µM | > 100 µM (inactive) | > 100 µM (inactive) | 0.0133 µM (active) | > 100 µM (inactive) | – | 34 µM (inactive) | > 100 µM (inactive) | > 100 µM (inactive) | > 100 µM (inactive) | – | > 100 µM (inactive) | > 100 µM (inactive) | > 100 µM (inactive) | > 100 µM (inactive) | – | –
3 | COC(=O)C1=COc2c(n(C)c3ccccc23)-c2ccccc21 | 74 µM (inactive) | > 100 µM (inactive) | > 100 µM (inactive) | > 100 µM | > 100 µM (inactive) | > 100 µM (inactive) | > 100 µM (inactive) | > 100 µM (inactive) | > 100 µM (inactive) | – | – | 97.3 µM (inactive) | > 100 µM (inactive) | > 100 µM (inactive) | > 100 µM (inactive) | > 100 µM (inactive) | > 100 µM (inactive) | 81.1 µM (inactive) | > 100 µM (inactive) | –
4 | Clc1cc(Cl)c2cc3cccc[n+]3cc2c1Cl | 16.3 µM (inactive) | 6.17 µM (inactive) | 6.44 µM (inactive) | 18.3 µM | 17.5 µM (inactive) | 16.3 µM (inactive) | 22.2 µM (inactive) | 16.4 µM (inactive) | 16.3 µM (inactive) | – | 15.5 µM (inactive) | 16.4 µM (inactive) | 16.3 µM (inactive) | 14.9 µM (inactive) | 16.7 µM (inactive) | 15.1 µM (inactive) | 18 µM (inactive) | 18.3 µM (inactive) | – | 5.87 µM (inactive)
5 | Cc1[nH]c2ccccc2c1C1Cc2ccccc2N1C(=O)/C=C/C=C/c1ccccc1 (stereo not given) | > 100 µM (inactive) | > 100 µM (inactive) | > 100 µM (inactive) | > 100 µM | > 100 µM (inactive) | – | > 100 µM (inactive) | > 100 µM (inactive) | > 100 µM (inactive) | > 100 µM (inactive) | 24.3 µM (inactive) | > 100 µM (inactive) | > 100 µM (inactive) | > 100 µM (inactive) | > 100 µM (inactive) | > 100 µM (inactive) | > 100 µM (inactive) | > 100 µM (inactive) | > 100 µM (inactive) | > 100 µM (inactive)
6 | O=C1C2Nc3ccccc3SC2C(=O)N1c1cccc([N+](=O)[O-])c1 (stereo not given) | > 84.1 µM (inactive) | > 100 µM (inactive) | > 100 µM (inactive) | 7.67 µM | > 100 µM (inactive) | – | > 79.6 µM (inactive) | > 86.9 µM (inactive) | 50.2 µM (inactive) | 57.3 µM (inactive) | > 100 µM (inactive) | > 100 µM (inactive) | > 75.7 µM (inactive) | > 100 µM (inactive) | > 100 µM (inactive) | > 90.2 µM (inactive) | > 74.5 µM (inactive) | > 100 µM (inactive) | > 100 µM (inactive) | > 100 µM (inactive)
7 | O=C1OC(O)C(Oc2ccc(Cl)cc2)=C1Cl (stereo not given) | > 100 µM (inactive) | > 100 µM (inactive) | > 100 µM (inactive) | > 100 µM | > 100 µM (inactive) | – | > 100 µM (inactive) | > 100 µM (inactive) | > 100 µM (inactive) | > 100 µM (inactive) | > 100 µM (inactive) | > 100 µM (inactive) | > 100 µM (inactive) | > 100 µM (inactive) | > 100 µM (inactive) | > 100 µM (inactive) | > 100 µM (inactive) | > 100 µM (inactive) | > 100 µM (inactive) | > 100 µM (inactive)
8 | [O-][n+]1c(-c2ccccc2)c2nc3ccccc3nc2c2ccccc21 | > 100 µM (inactive) | > 100 µM (inactive) | > 100 µM (inactive) | > 100 µM | > 100 µM (inactive) | – | > 100 µM (inactive) | > 100 µM (inactive) | > 100 µM (inactive) | > 100 µM (inactive) | 5 µM (inactive) | > 100 µM (inactive) | > 100 µM (inactive) | > 100 µM (inactive) | > 100 µM (inactive) | > 100 µM (inactive) | > 100 µM (inactive) | > 100 µM (inactive) | > 100 µM (inactive) | > 100 µM (inactive)
9 | CC(=O)Nc1ccc2c(c1)[nH]c(=O)c1cc(Cl)ccc12 | 23.9 µM (inactive) | 0.51 µM (active) | 17.4 µM (inactive) | 33.1 µM | 36.5 µM (inactive) | 23.4 µM (inactive) | 17.1 µM (inactive) | 10.2 µM (inactive) | 10.4 µM (inactive) | 27.1 µM (inactive) | 34.1 µM (inactive) | – | 46.6 µM (inactive) | 65.9 µM (inactive) | 34.3 µM (inactive) | 18.2 µM (inactive) | 35.1 µM (inactive) | 40.1 µM (inactive) | – | –
10 | C=C(C)CN(CC#N)CC(=C)C | > 100 µM (inactive) | > 100 µM (inactive) | > 100 µM (inactive) | > 100 µM | > 100 µM (inactive) | > 100 µM (inactive) | > 100 µM (inactive) | > 100 µM (inactive) | – | > 100 µM (inactive) | > 100 µM (inactive) | > 100 µM (inactive) | > 100 µM (inactive) | > 100 µM (inactive) | > 100 µM (inactive) | > 100 µM (inactive) | > 100 µM (inactive) | – | > 100 µM (inactive) | –
11 | O=CC(NC(=O)N(CCCl)N=O)C(O)C(O)C(O)CO (stereo not given) | 346 µM (inactive) | 798 µM (inactive) | – | 1190 µM | 748 µM (inactive) | 774 µM (inactive) | 347 µM (inactive) | 1240 µM (inactive) | 272 µM (inactive) | 1160 µM (inactive) | > 449 µM (inactive) | 851 µM (inactive) | 718 µM (inactive) | 312 µM (inactive) | 179 µM (inactive) | > 1200 µM (inactive) | 81.7 µM (inactive) | 119 µM (inactive) | 1150 µM (inactive) | –
